In US10131652B2, “Pyrimidinyloxy benzene derivatives as herbicides” (E. I. DU PONT DE NEMOURS AND COMPANY, priority 2014, dated 2018):
Where two headings read alike, the source gives them in different places.

Key:
Experiment in all cases: Test E pre-/postemergence plant response
Type in all cases: in vivo
[1] = tested on: blackgrass (Alopecurus myosuroides); conditions: scale 0 to 100, read-out: Plant response rating, Blackgrass; for pest or weed control at 16 g/ha: 16 g ai/ha; for pest or weed control at 31 g/ha: 31 g ai/ha; for pest or weed control at 62 g/ha: 62 g ai/ha; for pest or weed control at 125 g/ha: 125 g ai/ha
Procedure, shortened: (§1)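 Pre-emergence: seeds sown in silt loam soil and sprayed with test chemicals in a non-phytotoxic solvent/surfactant mix. Post-emergence: plants at 2–18 cm (1- to 4-leaf stage) in peat/vermiculite medium treated with the same formulation. Visual rating versus controls after 7–21 days, 0 (no effect) to 100 (complete control).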

[2] = tested on: pigweed (Amaranthus retroflexus); conditions: scale 0 to 100, read-out: Plant response rating, Pigweed; for pest or weed control at 16 g/ha: 16 g ai/ha; for pest or weed control at 31 g/ha: 31 g ai/ha; for pest or weed control at 62 g/ha: 62 g ai/ha; for pest or weed control at 125 g/ha: 125 g ai/ha
Procedure, shortened: as §1

wild oat (Avena fatua) = conditions: scale 0 to 100, read-out: Plant response rating, Oat, Wild; for pest or weed control at 16 g/ha: 16 g ai/ha; for pest or weed control at 31 g/ha: 31 g ai/ha; for pest or weed control at 62 g/ha: 62 g ai/ha; for pest or weed control at 125 g/ha: 125 g ai/ha
Procedure, shortened: as §1

[3] = tested on: windgrass (Apera spica-venti); conditions: scale 0 to 100, read-out: Plant response rating, Windgrass; for pest or weed control at 16 g/ha: 16 g ai/ha; for pest or weed control at 62 g/ha: 62 g ai/ha; for pest or weed control at 125 g/ha: 125 g ai/ha
Procedure, shortened: as §1

[4] = tested on: winter wheat (Triticum aestivum); conditions: post-emergence, Postemergence, scale 0 to 100, read-out: Plant response rating, Wheat, Winter
Procedure, shortened: as §1

[5] = tested on: lambsquarters (Chenopodium album); conditions: scale 0 to 100, read-out: Plant response rating, Lambsquarters; for pest or weed control at 16 g/ha: 16 g ai/ha; for pest or weed control at 31 g/ha: 31 g ai/ha; for pest or weed control at 62 g/ha: 62 g ai/ha; for pest or weed control at 125 g/ha: 125 g ai/ha
Procedure, shortened: as §1

[6] = tested on: wild radish (Raphanus raphanistrum); conditions: scale 0 to 100, read-out: Plant response rating, Radish, Wild; for pest or weed control at 16 g/ha: 16 g ai/ha; for pest or weed control at 31 g/ha: 31 g ai/ha; for pest or weed control at 62 g/ha: 62 g ai/ha; for pest or weed control at 125 g/ha: 125 g ai/ha
Procedure, shortened: as §1

[7] = tested on: canarygrass (Phalaris minor); conditions: scale 0 to 100, read-out: Plant response rating, Canarygrass; for pest or weed control at 16 g/ha: 16 g ai/ha; for pest or weed control at 31 g/ha: 31 g ai/ha; for pest or weed control at 62 g/ha: 62 g ai/ha; for pest or weed control at 125 g/ha: 125 g ai/ha
Procedure, shortened: as §1

kochia (Kochia scoparia) = conditions: Bassia scoparia, scale 0 to 100, read-out: Plant response rating, Kochia; for pest or weed control at 16 g/ha: 16 g ai/ha; for pest or weed control at 31 g/ha: 31 g ai/ha; for pest or weed control at 62 g/ha: 62 g ai/ha; for pest or weed control at 125 g/ha: 125 g ai/ha
Procedure, shortened: as §1

[8] = tested on: winter barley (Hordeum vulgare); conditions: post-emergence, Postemergence, scale 0 to 100, read-out: Plant response rating, Barley, Winter
Procedure, shortened: as §1

[9] = tested on: bluegrass (annual bluegrass, Poa annua); conditions: scale 0 to 100, read-out: Plant response rating, Bluegrass; for pest or weed control at 16 g/ha: 16 g ai/ha; for pest or weed control at 31 g/ha: 31 g ai/ha; for pest or weed control at 62 g/ha: 62 g ai/ha; for pest or weed control at 125 g/ha: 125 g ai/ha
Procedure, shortened: as §1

Question: Which results are given for `FC(F)(F)c1cc(-c2ccccc2Oc2ncc(Cl)cn2)no1` [Compound 200, 5-chloro-2-[2-[5-(trifluoromethyl)-3-isoxazolyl]phenoxy]pyrimidine]?
Answer: pest or weed control at 16 g/ha ([1]; post-emergence, Postemergence): 15%; pest or weed control at 31 g/ha ([1]; post-emergence, Postemergence): 35%; pest or weed control at 62 g/ha ([1]; post-emergence, Postemergence): 55%; pest or weed control at 125 g/ha ([1]; post-emergence, Postemergence): 75%; pest or weed control at 16 g/ha ([1]; pre-emergence, Preemergence): 25%; pest or weed control at 31 g/ha ([1]; pre-emergence, Preemergence): 75%; pest or weed control at 62 g/ha ([1]; pre-emergence, Preemergence): 90%; pest or weed control at 125 g/ha ([1]; pre-emergence, Preemergence): 100%; pest or weed control at 16 g/ha ([2]; post-emergence, Postemergence): 85%; pest or weed control at 31 g/ha ([2]; post-emergence, Postemergence): 90%; pest or weed control at 62 g/ha ([2]; post-emergence, Postemergence): 90%; pest or weed control at 125 g/ha ([2]; post-emergence, Postemergence): 90%; pest or weed control at 16 g/ha ([2]; pre-emergence, Preemergence): 100%; pest or weed control at 31 g/ha ([2]; pre-emergence, Preemergence): 100%; pest or weed control at 62 g/ha ([2]; pre-emergence, Preemergence): 100%; pest or weed control at 125 g/ha ([2]; pre-emergence, Preemergence): 100%; pest or weed control at 16 g/ha (wild oat (Avena fatua); post-emergence, Postemergence): 10%; pest or weed control at 31 g/ha (wild oat (Avena fatua); post-emergence, Postemergence): 20%; pest or weed control at 62 g/ha (wild oat (Avena fatua); post-emergence, Postemergence): 30%; pest or weed control at 125 g/ha (wild oat (Avena fatua); post-emergence, Postemergence): 35%; pest or weed control at 16 g/ha (wild oat (Avena fatua); pre-emergence, Preemergence): 0%; pest or weed control at 31 g/ha (wild oat (Avena fatua); pre-emergence, Preemergence): 0%; pest or weed control at 62 g/ha (wild oat (Avena fatua); pre-emergence, Preemergence): 30%; pest or weed control at 125 g/ha (wild oat (Avena fatua); pre-emergence, Preemergence): 75%; pest or weed control at 16 g/ha ([3]; post-emergence, Postemergence): 10%; pest or weed control at 31 g/ha ([3]; post-emergence, 31 g ai/ha, Postemergence): 20%; pest or weed control at 62 g/ha ([3]; post-emergence, Postemergence): 35%; pest or weed control at 125 g/ha ([3]; post-emergence, Postemergence): 45%; pest or weed control at 16 g/ha ([3]; pre-emergence, Preemergence): 15%; pest or weed control at 62 g/ha ([3]; pre-emergence, Preemergence): 100%; pest or weed control at 125 g/ha ([3]; pre-emergence, Preemergence): 100%; plant injury at 16 g/ha ([4]; 16 g ai/ha): 0%; plant injury at 31 g/ha ([4]; 31 g ai/ha): 5%; plant injury at 62 g/ha ([4]; 62 g ai/ha): 15%; plant injury at 125 g/ha ([4]; 125 g ai/ha): 25%; pest or weed control at 16 g/ha ([5]; post-emergence, Postemergence): 75%; pest or weed control at 31 g/ha ([5]; post-emergence, Postemergence): 85%; pest or weed control at 62 g/ha ([5]; post-emergence, Postemergence): 90%; pest or weed control at 125 g/ha ([5]; post-emergence, Postemergence): 95%; pest or weed control at 16 g/ha ([5]; pre-emergence, Preemergence): 10%; pest or weed control at 31 g/ha ([5]; pre-emergence, Preemergence): 85%; pest or weed control at 62 g/ha ([5]; pre-emergence, Preemergence): 100%; pest or weed control at 125 g/ha ([5]; pre-emergence, Preemergence): 100%; pest or weed control at 16 g/ha ([6]; post-emergence, Postemergence): 65%; pest or weed control at 31 g/ha ([6]; post-emergence, Postemergence): 80%; pest or weed control at 62 g/ha ([6]; post-emergence, Postemergence): 85%; pest or weed control at 125 g/ha ([6]; post-emergence, Postemergence): 95%; pest or weed control at 16 g/ha ([6]; pre-emergence, Preemergence): 80%; pest or weed control at 31 g/ha ([6]; pre-emergence, Preemergence): 70%; pest or weed control at 62 g/ha ([6]; pre-emergence, Preemergence): 95%; pest or weed control at 125 g/ha ([6]; pre-emergence, Preemergence): 95%; pest or weed control at 16 g/ha ([7]; post-emergence, Postemergence): 10%; pest or weed control at 31 g/ha ([7]; post-emergence, Postemergence): 35%; pest or weed control at 62 g/ha ([7]; post-emergence, Postemergence): 45%; pest or weed control at 125 g/ha ([7]; post-emergence, Postemergence): 60%; pest or weed control at 16 g/ha ([7]; pre-emergence, Preemergence): 10%; pest or weed control at 31 g/ha ([7]; pre-emergence, Preemergence): 55%; pest or weed control at 62 g/ha ([7]; pre-emergence, Preemergence): 100%; pest or weed control at 125 g/ha ([7]; pre-emergence, Preemergence): 100%; pest or weed control at 16 g/ha (kochia (Kochia scoparia); post-emergence, Postemergence): 70%; pest or weed control at 31 g/ha (kochia (Kochia scoparia); post-emergence, Postemergence): 85%; pest or weed control at 62 g/ha (kochia (Kochia scoparia); post-emergence, Postemergence): 85%; pest or weed control at 125 g/ha (kochia (Kochia scoparia); post-emergence, Postemergence): 90%; pest or weed control at 16 g/ha (kochia (Kochia scoparia); pre-emergence, Preemergence): 70%; pest or weed control at 31 g/ha (kochia (Kochia scoparia); pre-emergence, Preemergence): 100%; pest or weed control at 62 g/ha (kochia (Kochia scoparia); pre-emergence, Preemergence): 100%; pest or weed control at 125 g/ha (kochia (Kochia scoparia); pre-emergence, Preemergence): 100%; plant injury at 16 g/ha ([8]; 16 g ai/ha): 5%; plant injury at 31 g/ha ([8]; 31 g ai/ha): 10%; plant injury at 62 g/ha ([8]; 62 g ai/ha): 20%; plant injury at 125 g/ha ([8]; 125 g ai/ha): 25%; pest or weed control at 16 g/ha ([9]; post-emergence, Postemergence): 20%; pest or weed control at 31 g/ha ([9]; post-emergence, Postemergence): 35%; pest or weed control at 62 g/ha ([9]; post-emergence, Postemergence): 55%; pest or weed control at 125 g/ha ([9]; post-emergence, Postemergence): 70%; pest or weed control at 16 g/ha ([9]; pre-emergence, Preemergence): 20%; pest or weed control at 31 g/ha ([9]; pre-emergence, Preemergence): 70%; pest or weed control at 62 g/ha ([9]; pre-emergence, Preemergence): 95%; pest or weed control at 125 g/ha ([9]; pre-emergence, Preemergence): 100%
